Assay results taken from patent US11234918B2, “Methods for botanical and/or algae extraction” (BASF CORPORATION, priority 2012, dated 2022).

Legend:
human keratinocytes [1] = assay: UVB light protection: LDH release from UVB-irradiated in vitro cultivated human keratinocytes (UVB-LDH); assay type: cell-based; details: positive control aspirin at 0.03%, control with UV = 100
Description: Antiinflammatory Properties In Vitro-UVB Light Protection (UVB-LDH and UVB-PGE2)
(§1) Cell Protection Effect Against UVB on In Vitro Cultivated Human Keratinocytes
This membrane stress is indicated by the release of the cytoplasm enzyme lactate dehydrogenase (LDH). The effect of UVB radiation was investigated on keratinocytes in vitro by determining the release of the cytoplasm enzyme LDH (lactate dehydrogenase). This enzyme serves as a marker for cell damage.
(§2) Method: To carry out the tests, a defined medium (DMEM), which comprises 10% fetal calf serum, was inoculated with the keratinocytes and the plant extract (diluted with saline solution) was added 72 hours after inoculation.
(§3) The keratinocytes were then irradiated with a UVB dose (30 mJ/cm^2-tubes: DUKE GL40E).
Following further incubation for 1 day at 37° C. and at 5% CO2, the LDH and the PGE2 content in the supernatant was determined. The content of LDH (lactate dehydrogenase) was determined by means of an enzyme reaction (kit used to investigate the LDH content from Roche). The content of PGE2 was determined using an ELISA test (ELISA kit from Roche). Following trypsin treatment, the cells were centrifuged and counted.
UVB-LDH LDH or lactate dehydrogenase determination by means of an enzyme reaction

human keratinocytes [2] = assay: UVB light protection: PGE2 release from UVB-irradiated in vitro cultivated human keratinocytes, ELISA (UVB-PGE2); assay type: cell-based; details: positive control aspirin at 0.03%, control with UV = 100
Protocol: as §1, §2, §3
Following further incubation for 1 day at 37° C. and at 5% CO2, the LDH and the PGE2 content in the supernatant was determined. […] The content of PGE2 was determined using an ELISA test (ELISA kit from Roche).
UVB-PGE2 prostaglandins E2 determined using an ELISA test (ELISA kit from Roche).

## CC(=O)Oc1ccccc1C(=O)O [aspirin]
Human keratinocytes [1]; Table 4
  LDH release (% of UV control): 15%
Human keratinocytes [1]; Table 6
  LDH release (% of UV control): 0%
Human keratinocytes [2]; Table 4
  PGE2 release (% of UV control): -6%
Human keratinocytes [2]; Table 6
  PGE2 release (% of UV control): 0%
